Test results: patent US12344595B2, “2-amino-n-phenyl-nicotinamides as NAV1.8 inhibitors” (Merck Sharp & Dohme LLC, priority 2018, dated 2025)

biological target: human Nav1.8 (Homo sapiens (Human), UniProt Q9Y5Y9); test: Nav1.8 Qube automated patch-clamp assay; assay type: cell-based; conditions: Nav1.8 Qube Assay; human Nav1.8 channels stably expressed in HEK 293 cells
Method in brief: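 IC50 values came from Hill fitting of peak currents: pulse 1 for resting-state and pulse 10 for inactivated-state inhibition. Currents were recorded in stably transfected HEK293 cells at room temperature, with ten 20 ms steps to 10 mV at 1 Hz from a −90 mV hold. External solution was 150 mM NaCl-based; internal solution was CsF/CsCl.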

human Nav1.8, sequence (Q9Y5Y9 whole entry): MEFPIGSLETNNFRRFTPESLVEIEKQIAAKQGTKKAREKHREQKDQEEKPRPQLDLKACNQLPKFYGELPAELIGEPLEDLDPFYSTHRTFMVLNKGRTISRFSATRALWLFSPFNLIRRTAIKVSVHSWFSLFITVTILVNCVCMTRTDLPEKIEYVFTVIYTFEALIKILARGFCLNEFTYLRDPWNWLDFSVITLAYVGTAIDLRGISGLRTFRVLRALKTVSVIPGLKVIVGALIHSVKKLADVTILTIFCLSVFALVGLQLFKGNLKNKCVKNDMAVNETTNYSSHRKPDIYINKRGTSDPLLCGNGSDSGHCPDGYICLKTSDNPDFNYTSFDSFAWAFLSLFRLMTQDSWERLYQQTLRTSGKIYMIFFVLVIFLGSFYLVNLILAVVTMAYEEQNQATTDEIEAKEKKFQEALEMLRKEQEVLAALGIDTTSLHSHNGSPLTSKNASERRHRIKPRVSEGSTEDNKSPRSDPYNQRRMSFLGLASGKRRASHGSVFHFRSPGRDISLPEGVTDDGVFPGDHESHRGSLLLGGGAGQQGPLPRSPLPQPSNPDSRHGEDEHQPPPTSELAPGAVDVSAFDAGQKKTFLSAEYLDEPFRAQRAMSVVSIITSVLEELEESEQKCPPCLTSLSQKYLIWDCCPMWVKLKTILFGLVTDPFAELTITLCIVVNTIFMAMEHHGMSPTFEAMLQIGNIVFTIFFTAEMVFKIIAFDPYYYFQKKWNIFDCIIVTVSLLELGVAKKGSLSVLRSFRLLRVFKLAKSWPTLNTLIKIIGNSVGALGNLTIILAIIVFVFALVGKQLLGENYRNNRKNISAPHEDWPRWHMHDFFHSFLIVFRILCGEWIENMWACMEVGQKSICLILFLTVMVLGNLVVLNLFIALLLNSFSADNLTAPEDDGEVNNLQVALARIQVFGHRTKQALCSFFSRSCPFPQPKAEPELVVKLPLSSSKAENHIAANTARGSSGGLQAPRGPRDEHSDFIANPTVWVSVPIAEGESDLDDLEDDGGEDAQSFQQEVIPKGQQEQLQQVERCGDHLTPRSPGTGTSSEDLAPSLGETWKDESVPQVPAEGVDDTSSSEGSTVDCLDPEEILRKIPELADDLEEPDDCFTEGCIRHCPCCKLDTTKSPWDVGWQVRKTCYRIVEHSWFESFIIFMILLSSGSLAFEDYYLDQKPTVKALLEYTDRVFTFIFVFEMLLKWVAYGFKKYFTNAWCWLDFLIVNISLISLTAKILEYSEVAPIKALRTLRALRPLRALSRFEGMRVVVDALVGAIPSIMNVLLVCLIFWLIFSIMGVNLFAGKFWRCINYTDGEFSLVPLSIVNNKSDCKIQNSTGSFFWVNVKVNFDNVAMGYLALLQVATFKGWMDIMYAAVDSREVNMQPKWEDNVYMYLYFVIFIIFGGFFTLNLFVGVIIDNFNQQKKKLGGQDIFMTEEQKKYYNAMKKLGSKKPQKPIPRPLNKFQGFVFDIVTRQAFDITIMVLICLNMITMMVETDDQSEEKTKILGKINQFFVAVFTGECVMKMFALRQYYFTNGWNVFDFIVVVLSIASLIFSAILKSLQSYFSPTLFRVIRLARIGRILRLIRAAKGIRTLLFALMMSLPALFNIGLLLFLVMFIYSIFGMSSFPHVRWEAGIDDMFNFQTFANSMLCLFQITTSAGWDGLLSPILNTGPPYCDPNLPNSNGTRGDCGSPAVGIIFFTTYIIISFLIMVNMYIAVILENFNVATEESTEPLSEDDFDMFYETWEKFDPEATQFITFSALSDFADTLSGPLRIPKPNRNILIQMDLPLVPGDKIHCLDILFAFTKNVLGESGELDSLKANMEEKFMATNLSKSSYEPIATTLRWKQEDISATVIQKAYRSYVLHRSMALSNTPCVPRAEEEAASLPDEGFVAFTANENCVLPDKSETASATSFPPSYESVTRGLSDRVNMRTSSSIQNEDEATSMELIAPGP

SMILES	IC50
NS(=O)(=O)c1cccc(NC(=O)c2cc(C(F)(F)F)cnc2N2CC3CCC3(C(F)(F)F)C2)c1 (single isomer, unassigned) [Example 130, N-(3-sulfamoylphenyl)-5-(trifluoromethyl)-2-[(1R,5R or 1S,5S)-1-(trifluoromethyl)-3-azabicyclo[3.2.0]heptan-3-yl]pyridine-3-carboxamide]	0.016 µM
NC(=O)c1cccc(NC(=O)c2ccc(C(F)(F)F)nc2N2CCC3(CC2)CC3)c1 [Example 83, N-(3-carbamoyl-phenyl)-2-(6-azaspiro[2.5]octan-6-yl)-6-(trifluoro-methyl)-nicotinamide]	0.18 µM
CC1CN(c2ncc(C(F)(F)F)cc2C(=O)Nc2cccc(S(N)(=O)=O)c2)CC(C)O1 (single isomer, unassigned) [Example 149, 2-[(2R,6S or 2S,6R)-2,6-dimethylmorpholin-4-yl]-N-(3-sulfamoylphenyl)-5-(trifluoromethyl) pyridine-3-carboxamide]	0.351 µM
CS(=O)(=O)c1cccc(NC(=O)c2cc(C(F)(F)F)cnc2N2CCCC(F)(F)C2)c1 [Example 102, 2-(3,3-difluoro-1-piperidyl)-N-(3-methylsulfonylphenyl)-5-(trifluoromethyl)-pyridine-3-carboxamide]	0.706 µM
COC(=O)N1CCN(c2ncc(C(F)(F)F)cc2C(=O)Nc2cccc(S(N)(=O)=O)c2)CC1 [Example 74, methyl 4-[3-[(3-sulfamoylphenyl)carbamoyl]-5-(trifluoro-methyl)-2-pyridyl]-piperazine-1-carboxylate]	9.97 µM
NC(=O)c1cccc(NC(=O)c2cc(C(F)(F)C(F)(F)F)cnc2N2CCCCCC2)c1 [Example 167, 2-(azepan-1-yl)-N-(3-carbamoylphenyl)-5-(1,1,2,2,2-penta-fluoroethyl)pyridine-3-carboxamide]	0.085 µM
NS(=O)(=O)c1cccc(NC(=O)c2cc(C(F)(F)F)cnc2N2CC3(CCOCC3)C2)c1 [Example 81, 2-(7-oxa-2-azaspiro[3.5]nonan-2-yl)-N-(3-sulfamoyl-phenyl)-5-(trifluoro-methyl)nicotinamide]	4.24 µM
NS(=O)(=O)c1cccc(NC(=O)c2cc(C(F)(F)F)cnc2N2CC(C(F)(F)F)C2)c1 [Example 58, N-(3-sulfamoylphenyl)-5-(trifluoromethyl)-2-[3-(trifluoromethyl)-azetidin-1-yl]pyridine-3-carboxamide]	0.616 µM
NS(=O)(=O)c1cccc(NC(=O)c2cc(C(F)(F)F)cnc2N2CCc3scnc3C2)c1 [Example 55, 2-(6,7-dihydro-4H-thiazol[4,5-c]pyridin-5-yl)-N-(3-sulfamoyl-phenyl)-5-(trifluoro-methyl)pyridine-3-carboxamide]	0.405 µM
CS(=O)(=O)c1cccc(NC(=O)c2cc(C(F)(F)F)cnc2N2Cc3ccccc3C2)c1 [Example 103, 2-isoindolin-2-yl-N-(3-methylsulfonylphenyl)-5-(trifluoromethyl)-pyridine-3-carboxamide]	2.33 µM
NS(=O)(=O)c1cccc(NC(=O)c2cc(C(F)(F)F)cnc2N2CCS(=O)(=O)CC2)c1 [Example 70, 2-(1,1-dioxo-1,4-thiazinan-4-yl)-N-(3-sulfamoylphenyl)-5-(trifluoromethyl)pyridine-3-carboxamide]	5.48 µM
CS(=O)(=O)c1cccc(NC(=O)c2cc(C(F)(F)F)cnc2N2CCC(F)(F)CC2)c1 [Example 152, 2-(4,4-difluoropiperidin-1-yl)-N-(3-(methylsulfonyl)phenyl)-5-(trifluoromethyl)nicotinamide]	0.067 µM
NC(=O)c1cccc(NC(=O)c2cc(C(F)(F)F)cnc2N2CCC3(CC3)C(F)(F)C2)c1 [Example 109, N-(3-carbamoylphenyl)-2-(8,8-difluoro-6-aza-spiro[2.5]octan-6-yl)-5-(trifluoro-methyl)-pyridine-3-carboxamide]	0.86 µM
NS(=O)(=O)c1cccc(NC(=O)c2cc(C(F)(F)F)cnc2N2CC3COC(C3)C2)c1 (stereo not drawn) [Example 64, 2-(6-oxa-3-azabicyclo[3.2.1]octan-3-yl)-N-(3-sulfamoyl-phenyl)-5-(trifluoro-methyl)pyridine-3-carboxamide]	2.16 µM
NS(=O)(=O)c1cc(F)cc(NC(=O)c2cc(C(F)(F)F)cnc2N2CCCCC2)c1 [Example 114, N-(3-fluoro-5-sulfamoyl-phenyl)-2-(1-piperidyl)-5-(tri-fluoromethyl)-pyridine-3-carboxamide]	0.242 µM
NS(=O)(=O)c1cccc(NC(=O)c2cc(C(F)(F)F)cnc2N2CCCC3(C2)CC3(F)F)c1 (single isomer, unassigned) [Example 126, 2-[(3S or 3R)-2,2-difluoro-5-azaspiro[2.5]-octan-5-yl]-N-(3-sulfamoylphenyl)-5-(trifluoromethyl)-pyridine-3-carboxamide]	0.014 µM
N#Cc1ccc(NC(=O)c2cc(C(F)(F)F)cnc2N2CCCCCC2)cc1 [Example 22, 2-(azepan-1-yl)-N-(4-cyanophenyl)-5-(trifluoromethyl)pyridine-3-carboxamide]	0.47 µM
CS(=O)(=O)c1cccc(NC(=O)c2cc(C(F)(F)F)cnc2N2CCc3ccccc3C2)c1 [Example 98, 2-(3,4-dihydro-1H-isoquinolin-2-yl)-N-(3-methylsulfonylphenyl)-5-(trifluoromethyl)-pyridine-3-carboxamide]	0.093 µM
Cc1ccc(C(=O)Nc2cccc(S(C)(=O)=O)c2)c(N2CCCC(F)(F)CC2)n1 [Example 10, 2-(4,4-difluoroazepan-1-yl)-6-methyl-N-(3-methylsulfonylphenyl) pyridine-3-carboxamide]	0.0092 µM
Cc1cc(Cl)nc(N2CCCC(F)(F)CC2)c1C(=O)Nc1cccc(S(C)(=O)=O)c1 [Example 8, 6-chloro-2-(4,4-difluoroazepan-1-yl)-4-methyl-N-(3-methyl-sulfonylphenyl)pyridine-3-carboxamide]	0.0058 µM
Cc1nc(N2CCC(F)(F)CC2)c(C(=O)Nc2cccc(C#N)c2)c(C)c1Cl [Example 20, 5-chloro-N-(3-cyanophenyl)-2-(4,4-difluoro-1-piperidyl)-4,6-dimethyl-pyridine-3-carboxamide]	0.074 µM
NS(=O)(=O)c1cccc(NC(=O)c2cc(C(F)(F)F)cnc2N2CC3CCC(C2)O3)c1 [Example 52, 2-(8-oxa-3-azabicyclo[3.2.1]octan-3-yl)-N-(3-sulfamoyl-phenyl)-5-(trifluoro-methyl)pyridine-3-carboxamide]	0.301 µM

Results, then the molecule that gave them:

IC50	SMILES
0.016 µM	NS(=O)(=O)c1cccc(NC(=O)c2ccc(Cl)nc2N2CCCCCC2)c1 [Example 89, 2-(azepan-1-yl)-6-chloro-N-(3-sulfamoyl-phenyl)pyridine-3-carboxamide]
1.18 µM	CC(C)(C)c1nc(N2CCCCC2)c(C(=O)Nc2cccc(S(N)(=O)=O)c2)cc1Cl [Example 40, 6-(tert-butyl)-5-chloro-2-(piperidin-1-yl)-N-(3-sulfamoylphenyl)nicotinamide]
0.054 µM	Cc1nc(N2CCCCC2)c(C(=O)Nc2cccc(S(C)(=O)=O)c2)c(C)c1Cl [Example 12, 5-chloro-4,6-dimethyl-N-(3-methylsulfonyl-phenyl)-2-(1-piperidyl)pyridine-3-carboxamide]
0.0073 µM	NS(=O)(=O)c1cccc(NC(=O)c2cc(C3CC3)cnc2N2CCCC(F)(F)CC2)c1 [Example 163, 5-cyclopropyl-2-(4,4-difluoroazepan-1-yl)-N-(3-sulfamoyl-phenyl)nicotinamide]
0.0071 µM	CC(C)c1cnc(N2CCCC(F)(F)CC2)c(C(=O)Nc2cccc(S(N)(=O)=O)c2)c1 [Example 162, 2-(4,4-difluoroazepan-1-yl)-5-isopropyl-N-(3-sulfamoylphenyl)nicotinamide]
0.024 µM	NS(=O)(=O)c1cccc(NC(=O)c2cc(Br)cnc2N2CCCCCC2)c1 [Example 32, 2-(azepan-1-yl)-5-bromo-N-(3-sulfamoyl-phenyl)pyridine-3-carboxamide]
2.69 µM	CC(C)(C)c1ccc(C(=O)Nc2cccc(S(N)(=O)=O)c2)c(N2CCCCC2)n1 [Example 42, 6-(tert-butyl)-2-(piperidin-1-yl)-N-(3-sulfamoylphenyl)nicotinamide]
0.02 µM	CS(=O)(=O)c1cccc(NC(=O)c2cc(C(F)(F)F)cnc2N2CCCCCCC2)c1 [Example 95, 2-(azocan-1-yl)-N-(3-methylsulfonylphenyl)-5-(trifluoromethyl)-pyridine-3-carboxamide]
0.342 µM	NS(=O)(=O)c1cccc(NC(=O)c2ccc(C(F)(F)C(F)(F)F)nc2N2CCCCC2)c1 [Example 165, 6-(1,1,2,2,2-pentafluoroethyl)-2-(1-piperidyl)-N-(3-sulfamoylphenyl) pyridine-3-carboxamide]
0.01 µM	Cc1cc(Cl)nc(N2CCCCCC2)c1C(=O)Nc1cccc(S(N)(=O)=O)c1 [Example 29, 2-(azepan-1-yl)-6-chloro-4-methyl-N-(3-sulfamoylphenyl)nicotinamide]
3 µM	NS(=O)(=O)c1ccc(F)c(NC(=O)c2cc(C(F)(F)F)cnc2N2CCCCC2)c1 [Example 116, N-(2-fluoro-5-sulfamoyl-phenyl)-2-(1-piperidyl)-5-(tri-fluoromethyl)pyridine-3-carboxamide]
0.603 µM	NS(=O)(=O)c1cccc(NC(=O)c2cc(-c3cccnc3)cnc2N2CCCCCC2)c1 [Example 34, 2-(azepan-1-yl)-5-(3-pyridyl)-N-(3-sulfamoyl-phenyl)pyridine-3-carboxamide]
0.031 µM	Cc1cc(C(=O)Nc2cccc(S(C)(=O)=O)c2)c(N2CCCCCC2)nc1C [Example 36, 2-(azepan-1-yl)-5,6-dimethyl-N-(3-methyl-sulfonylphenyl)pyridine-3-carboxamide]
0.0021 µM	Cc1nc(N2CCCCCC2)c(C(=O)Nc2cccc(S(N)(=O)=O)c2)cc1Cl [Example 26, 2-(azepan-1-yl)-5-chloro-6-methyl-N-(3-sulfamoylphenyl)nicotinanmide]
